Reference: ChEMBL document CHEMBL5723584 (2023)

What was measured:
Aurora kinase A = Aurora kinase A (Homo sapiens, UniProt O14965); assay: Promega NanoBRET (AURKA)
[1] = target: Tyrosine-protein kinase ABL1 (Homo sapiens) (UniProt P00519); assay: activity of Abl(h) at 1.0 µM in the Eurofins Kinase panel; details: Compound concentration 1.0 uM
[2] = target: Bone morphogenetic protein receptor type-2 (Homo sapiens) (UniProt Q13873); assay: activity of BMPR2(h) at 1.0 µM in the Eurofins Kinase panel; details: Compound concentration 1.0 uM
[3] = target: Serine/threonine-protein kinase BRSK2 (Homo sapiens) (UniProt Q8IWQ3); assay: activity of BrSK2(h) at 1.0 µM in the Eurofins Kinase panel; details: Compound concentration 1.0 uM
Chain of Serine/threonine-protein kinase BRSK2 (Homo sapiens) (Q8IWQ3 whole entry): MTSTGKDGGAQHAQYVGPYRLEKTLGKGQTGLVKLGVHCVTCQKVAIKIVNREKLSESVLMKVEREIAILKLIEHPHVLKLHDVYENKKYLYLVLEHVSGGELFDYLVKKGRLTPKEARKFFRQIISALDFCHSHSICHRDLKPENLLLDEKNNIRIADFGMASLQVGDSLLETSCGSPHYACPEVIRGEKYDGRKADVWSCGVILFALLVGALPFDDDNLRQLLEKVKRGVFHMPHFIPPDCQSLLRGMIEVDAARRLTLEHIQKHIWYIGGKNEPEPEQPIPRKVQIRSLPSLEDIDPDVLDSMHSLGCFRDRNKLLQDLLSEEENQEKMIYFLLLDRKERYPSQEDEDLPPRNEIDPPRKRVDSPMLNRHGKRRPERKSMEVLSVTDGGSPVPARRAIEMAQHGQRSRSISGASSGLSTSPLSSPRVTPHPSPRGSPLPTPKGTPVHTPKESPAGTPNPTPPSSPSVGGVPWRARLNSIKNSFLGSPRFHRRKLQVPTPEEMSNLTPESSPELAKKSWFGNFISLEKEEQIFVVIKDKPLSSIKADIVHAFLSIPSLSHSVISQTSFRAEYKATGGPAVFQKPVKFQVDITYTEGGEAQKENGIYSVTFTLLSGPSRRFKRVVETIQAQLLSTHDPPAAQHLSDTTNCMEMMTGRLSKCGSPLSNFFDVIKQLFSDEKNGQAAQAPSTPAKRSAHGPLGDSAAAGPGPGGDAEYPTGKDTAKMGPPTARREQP

[4] = target: CDC7/Cyclin B1 (Homo sapiens) (UniProt P14635+O00311); assay: activity of Cdc7/cyclinB1(h) at 1.0 µM in the Eurofins Kinase panel; assay type: protein-complex assay; details: Compound concentration 1.0 uM
Chain of CDC7/Cyclin B1 (Homo sapiens) (O00311 whole entry, looked up): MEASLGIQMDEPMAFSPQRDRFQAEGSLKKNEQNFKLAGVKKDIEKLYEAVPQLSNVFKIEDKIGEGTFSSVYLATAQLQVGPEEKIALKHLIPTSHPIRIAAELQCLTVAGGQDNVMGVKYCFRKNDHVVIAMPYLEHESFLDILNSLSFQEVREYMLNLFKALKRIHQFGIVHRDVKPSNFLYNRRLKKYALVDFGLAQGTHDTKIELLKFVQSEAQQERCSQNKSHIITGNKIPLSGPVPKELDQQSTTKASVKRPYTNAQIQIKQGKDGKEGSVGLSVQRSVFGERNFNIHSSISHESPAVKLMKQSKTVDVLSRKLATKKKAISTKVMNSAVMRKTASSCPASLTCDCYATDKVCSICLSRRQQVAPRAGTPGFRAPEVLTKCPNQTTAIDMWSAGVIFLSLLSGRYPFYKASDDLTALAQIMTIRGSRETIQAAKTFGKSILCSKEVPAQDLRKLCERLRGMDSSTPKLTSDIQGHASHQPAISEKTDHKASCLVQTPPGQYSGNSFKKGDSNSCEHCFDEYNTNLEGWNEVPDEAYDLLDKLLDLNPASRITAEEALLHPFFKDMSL
Chain of CDC7/Cyclin B1 (Homo sapiens) (P14635 whole entry, looked up): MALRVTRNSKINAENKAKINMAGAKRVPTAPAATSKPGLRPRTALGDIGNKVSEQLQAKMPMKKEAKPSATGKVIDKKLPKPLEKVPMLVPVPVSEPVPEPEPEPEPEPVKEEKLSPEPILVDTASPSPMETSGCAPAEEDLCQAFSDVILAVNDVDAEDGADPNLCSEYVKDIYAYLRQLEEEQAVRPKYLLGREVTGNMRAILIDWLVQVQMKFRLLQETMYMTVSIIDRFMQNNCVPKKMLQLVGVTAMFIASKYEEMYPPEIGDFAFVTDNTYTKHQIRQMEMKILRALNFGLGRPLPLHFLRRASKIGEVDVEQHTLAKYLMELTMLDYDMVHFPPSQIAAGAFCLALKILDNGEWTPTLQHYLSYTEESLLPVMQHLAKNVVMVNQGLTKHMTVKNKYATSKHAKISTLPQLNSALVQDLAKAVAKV

[5] = target: Cyclin-Y/Cyclin-dependent kinase 16 (Homo sapiens) (UniProt Q00536+Q8ND76); assay: activity of CDK16/cyclinY(h) at 1.0 µM in the Eurofins Kinase panel; assay type: protein-complex assay; details: Compound concentration 1.0 uM
[6] = target: Serine/threonine-protein kinase Chk1 (Homo sapiens) (UniProt O14757); assay: activity of CHK1(h) at 1.0 µM in the Eurofins Kinase panel; details: Compound concentration 1.0 uM
[7] = target: DNA-dependent protein kinase catalytic subunit (Homo sapiens) (UniProt P78527); assay: activity of DNA-PK(h) at 1.0 µM in the Eurofins Kinase panel; details: Compound concentration 1.0 uM
[8] = target: Dual specificity tyrosine-phosphorylation-regulated kinase 3 (Homo sapiens) (UniProt O43781); assay: activity of DYRK3(h) at 1.0 µM in the Eurofins Kinase panel; details: Compound concentration 1.0 uM
Chain of Dual specificity tyrosine-phosphorylation-regulated kinase 3 (Homo sapiens) (O43781 whole entry): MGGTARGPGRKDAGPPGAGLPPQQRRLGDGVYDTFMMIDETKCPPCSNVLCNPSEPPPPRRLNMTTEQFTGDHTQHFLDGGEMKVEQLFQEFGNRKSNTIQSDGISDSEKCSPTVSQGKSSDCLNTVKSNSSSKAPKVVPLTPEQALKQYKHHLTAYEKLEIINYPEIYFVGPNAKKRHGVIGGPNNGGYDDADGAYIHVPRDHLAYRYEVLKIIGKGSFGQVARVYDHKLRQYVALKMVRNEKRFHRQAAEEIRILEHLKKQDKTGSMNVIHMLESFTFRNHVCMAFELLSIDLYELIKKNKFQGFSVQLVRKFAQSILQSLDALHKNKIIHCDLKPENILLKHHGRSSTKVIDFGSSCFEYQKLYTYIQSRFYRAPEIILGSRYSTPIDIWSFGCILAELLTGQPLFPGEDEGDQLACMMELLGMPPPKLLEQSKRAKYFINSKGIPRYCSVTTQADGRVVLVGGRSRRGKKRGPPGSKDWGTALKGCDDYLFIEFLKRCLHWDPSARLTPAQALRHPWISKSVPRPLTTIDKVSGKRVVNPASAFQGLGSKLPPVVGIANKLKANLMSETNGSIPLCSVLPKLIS

[9] = target: Eukaryotic elongation factor 2 kinase (Homo sapiens) (UniProt O00418); assay: activity of eEF-2K(h) at 1.0 µM in the Eurofins Kinase panel; details: Compound concentration 1.0 uM
Chain of Eukaryotic elongation factor 2 kinase (Homo sapiens) (O00418 whole entry): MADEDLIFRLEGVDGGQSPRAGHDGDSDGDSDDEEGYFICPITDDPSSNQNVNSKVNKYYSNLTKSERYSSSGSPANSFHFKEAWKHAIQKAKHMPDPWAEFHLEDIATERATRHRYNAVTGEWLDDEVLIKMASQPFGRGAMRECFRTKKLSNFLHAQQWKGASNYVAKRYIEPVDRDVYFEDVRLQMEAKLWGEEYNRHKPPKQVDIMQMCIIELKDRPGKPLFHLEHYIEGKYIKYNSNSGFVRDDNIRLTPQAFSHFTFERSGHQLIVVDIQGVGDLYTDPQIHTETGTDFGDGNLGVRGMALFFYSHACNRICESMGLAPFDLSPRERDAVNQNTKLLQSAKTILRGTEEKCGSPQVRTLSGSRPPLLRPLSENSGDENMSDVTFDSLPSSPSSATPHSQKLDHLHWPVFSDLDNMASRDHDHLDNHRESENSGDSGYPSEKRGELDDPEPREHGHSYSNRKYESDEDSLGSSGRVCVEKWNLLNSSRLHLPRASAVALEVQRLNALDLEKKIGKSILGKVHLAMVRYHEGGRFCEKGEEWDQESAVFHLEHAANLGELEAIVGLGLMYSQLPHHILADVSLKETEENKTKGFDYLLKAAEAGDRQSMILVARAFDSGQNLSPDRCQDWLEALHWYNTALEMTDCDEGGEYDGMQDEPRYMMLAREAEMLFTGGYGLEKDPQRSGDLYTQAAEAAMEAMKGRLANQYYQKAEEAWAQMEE

[10] = target: Ephrin type-A receptor 8 (Homo sapiens) (UniProt P29322); assay: activity of EphA8(h) at 1.0 µM in the Eurofins Kinase panel; details: Compound concentration 1.0 uM
[11] = target: Tyrosine-protein kinase HCK (Homo sapiens) (UniProt P08631); assay: activity of Hck(h) activated at 1.0 µM in the Eurofins Kinase panel; details: Compound concentration 1.0 uM
[12] = target: Homeodomain-interacting protein kinase 2 (Homo sapiens) (UniProt Q9H2X6); assay: activity of HIPK2(h) at 1.0 µM in the Eurofins Kinase panel; details: Compound concentration 1.0 uM
[13] = target: Insulin receptor-related protein (Homo sapiens) (UniProt P14616); assay: activity of IRR(h) at 1.0 µM in the Eurofins Kinase panel; details: Compound concentration 1.0 uM
[14] = target: Mitogen-activated protein kinase 9 (Homo sapiens) (UniProt P45984); assay: activity of JNK2alpha2(h) at 1.0 µM in the Eurofins Kinase panel; details: Compound concentration 1.0 uM
[15] = target: Serine/threonine-protein kinase LATS1 (Homo sapiens) (UniProt O95835); assay: activity of LATS1(h) at 1.0 µM in the Eurofins Kinase panel; details: Compound concentration 1.0 uM
[16] = target: Serine/threonine-protein kinase STK11 (Homo sapiens) (UniProt Q15831); assay: activity of LKB1(h) at 1.0 µM in the Eurofins Kinase panel; details: Compound concentration 1.0 uM
[17] = target: Serine/threonine-protein kinase 10 (Homo sapiens) (UniProt O94804); assay: activity of LOK(h) at 1.0 µM in the Eurofins Kinase panel; details: Compound concentration 1.0 uM
[18] = target: Mitogen-activated protein kinase kinase kinase kinase 5 (Homo sapiens) (UniProt Q9Y4K4); assay: activity of MAP4K5(h) at 1.0 µM in the Eurofins Kinase panel; details: Compound concentration 1.0 uM
Chain of Mitogen-activated protein kinase kinase kinase kinase 5 (Homo sapiens) (Q9Y4K4 whole entry, looked up): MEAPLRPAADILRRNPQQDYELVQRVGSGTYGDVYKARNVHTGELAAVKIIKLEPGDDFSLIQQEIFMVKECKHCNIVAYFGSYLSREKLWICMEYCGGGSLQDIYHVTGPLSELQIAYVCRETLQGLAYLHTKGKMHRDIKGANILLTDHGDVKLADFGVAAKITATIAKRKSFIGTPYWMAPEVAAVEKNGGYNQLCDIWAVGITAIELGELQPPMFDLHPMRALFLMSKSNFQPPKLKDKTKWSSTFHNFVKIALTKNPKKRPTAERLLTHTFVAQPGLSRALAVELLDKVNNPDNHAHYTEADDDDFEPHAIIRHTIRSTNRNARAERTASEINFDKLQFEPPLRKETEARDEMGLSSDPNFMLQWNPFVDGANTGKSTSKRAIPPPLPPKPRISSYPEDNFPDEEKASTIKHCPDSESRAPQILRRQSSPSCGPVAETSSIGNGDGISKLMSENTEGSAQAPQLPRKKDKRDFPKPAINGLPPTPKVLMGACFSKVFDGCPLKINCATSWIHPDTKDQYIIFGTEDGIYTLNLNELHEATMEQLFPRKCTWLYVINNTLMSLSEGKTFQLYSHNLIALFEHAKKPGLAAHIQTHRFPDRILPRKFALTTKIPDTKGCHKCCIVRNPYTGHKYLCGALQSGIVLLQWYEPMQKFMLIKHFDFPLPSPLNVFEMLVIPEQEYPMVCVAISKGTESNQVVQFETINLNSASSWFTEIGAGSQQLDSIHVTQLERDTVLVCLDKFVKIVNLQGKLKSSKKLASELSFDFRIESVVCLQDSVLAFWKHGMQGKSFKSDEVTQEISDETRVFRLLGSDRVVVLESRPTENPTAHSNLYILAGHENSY

[19] = target: MAP/microtubule affinity-regulating kinase 4 (Homo sapiens) (UniProt Q96L34); assay: activity of MARK4(h) at 1.0 µM in the Eurofins Kinase panel; details: Compound concentration 1.0 uM
[20] = target: Misshapen-like kinase 1 (Homo sapiens) (UniProt Q8N4C8); assay: activity of MINK(h) at 1.0 µM in the Eurofins Kinase panel; details: Compound concentration 1.0 uM
[21] = target: Muscle, skeletal receptor tyrosine-protein kinase (Homo sapiens) (UniProt O15146); assay: activity of MuSK(h) at 1.0 µM in the Eurofins Kinase panel; details: Compound concentration 1.0 uM
[22] = target: Serine/threonine-protein kinase Nek3 (Homo sapiens) (UniProt P51956); assay: activity of NEK3(h) at 1.0 µM in the Eurofins Kinase panel; details: Compound concentration 1.0 uM
[23] = target: Serine/threonine-protein kinase PAK 1 (Homo sapiens) (UniProt Q13153); assay: activity of PAK1(h) at 1.0 µM in the Eurofins Kinase panel; details: Compound concentration 1.0 uM
Chain of Serine/threonine-protein kinase PAK 1 (Homo sapiens) (Q13153 whole entry): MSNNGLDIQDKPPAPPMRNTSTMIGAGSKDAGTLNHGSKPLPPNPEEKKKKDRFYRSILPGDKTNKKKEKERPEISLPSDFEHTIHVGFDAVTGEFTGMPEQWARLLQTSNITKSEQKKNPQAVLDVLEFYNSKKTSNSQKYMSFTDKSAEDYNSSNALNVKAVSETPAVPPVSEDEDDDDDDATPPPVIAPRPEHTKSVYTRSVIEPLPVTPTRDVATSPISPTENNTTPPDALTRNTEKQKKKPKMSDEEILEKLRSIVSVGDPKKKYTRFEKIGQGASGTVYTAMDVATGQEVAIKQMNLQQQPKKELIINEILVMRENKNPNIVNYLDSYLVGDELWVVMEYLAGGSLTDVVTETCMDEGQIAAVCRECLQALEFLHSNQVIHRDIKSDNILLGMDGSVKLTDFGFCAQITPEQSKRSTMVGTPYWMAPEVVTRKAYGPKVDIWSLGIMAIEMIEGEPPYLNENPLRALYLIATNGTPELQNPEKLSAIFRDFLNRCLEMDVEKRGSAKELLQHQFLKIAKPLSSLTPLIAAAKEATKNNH

[24] = target: Serine/threonine-protein kinase PAK 4 (Homo sapiens) (UniProt O96013); assay: activity of PAK4(h) at 1.0 µM in the Eurofins Kinase panel; details: Compound concentration 1.0 uM
[25] = target: Serine/threonine-protein kinase PAK 5 (Homo sapiens) (UniProt Q9P286); assay: activity of PAK5(h) at 1.0 µM in the Eurofins Kinase panel; details: Compound concentration 1.0 uM
[26] = target: PI3-kinase p110-delta/p85-alpha (Homo sapiens) (UniProt P27986+O00329); assay: activity of PI3 Kinase (p110delta/p85alpha)(h) at 1.0 µM in the Eurofins Kinase panel; assay type: protein-complex assay; details: Compound concentration 1.0 uM
[27] = target: Protein kinase C gamma type (Homo sapiens) (UniProt P05129); assay: activity of PKCgamma(h) at 1.0 µM in the Eurofins Kinase panel; details: Compound concentration 1.0 uM
[28] = target: MAP kinase-activated protein kinase 5 (Homo sapiens) (UniProt Q8IW41); assay: activity of PRAK(h) at 1.0 µM in the Eurofins Kinase panel; details: Compound concentration 1.0 uM
[29] = target: Serine/threonine-protein kinase N1 (Homo sapiens) (UniProt Q16512); assay: activity of PRK1(h) at 1.0 µM in the Eurofins Kinase panel; details: Compound concentration 1.0 uM
[30] = target: Tyrosine-protein kinase FRK (Homo sapiens) (UniProt P42685); assay: activity of PTK5(h) at 1.0 µM in the Eurofins Kinase panel; details: Compound concentration 1.0 uM
[31] = target: Protein-tyrosine kinase 2-beta (Homo sapiens) (UniProt Q14289); assay: activity of Pyk2(h) at 1.0 µM in the Eurofins Kinase panel; details: Compound concentration 1.0 uM
[32] = target: Ribosomal protein S6 kinase alpha-1 (Homo sapiens) (UniProt Q15418); assay: activity of Rsk1(h) at 1.0 µM in the Eurofins Kinase panel; details: Compound concentration 1.0 uM
[33] = target: Serine/threonine-protein kinase 16 (Homo sapiens) (UniProt O75716); assay: activity of STK16(h) at 1.0 µM in the Eurofins Kinase panel; details: Compound concentration 1.0 uM
[34] = target: Transcription initiation factor TFIID subunit 1-like (Homo sapiens) (UniProt Q8IZX4); assay: activity of TAF1L(h) at 1.0 µM in the Eurofins Kinase panel; details: Compound concentration 1.0 uM
[35] = target: TRAF2 and NCK-interacting protein kinase (Homo sapiens) (UniProt Q9UKE5); assay: activity of TNIK(h) at 1.0 µM in the Eurofins Kinase panel; details: Compound concentration 1.0 uM
[36] = target: Tribbles homolog 2 (Homo sapiens) (UniProt Q92519); assay: activity of TRB2(h) at 1.0 µM in the Eurofins Kinase panel; details: Compound concentration 1.0 uM
[37] = target: Testis-specific serine/threonine-protein kinase 2 (Homo sapiens) (UniProt Q96PF2); assay: activity of TSSK2(h) at 1.0 µM in the Eurofins Kinase panel; details: Compound concentration 1.0 uM
Chain of Testis-specific serine/threonine-protein kinase 2 (Homo sapiens) (Q96PF2 whole entry): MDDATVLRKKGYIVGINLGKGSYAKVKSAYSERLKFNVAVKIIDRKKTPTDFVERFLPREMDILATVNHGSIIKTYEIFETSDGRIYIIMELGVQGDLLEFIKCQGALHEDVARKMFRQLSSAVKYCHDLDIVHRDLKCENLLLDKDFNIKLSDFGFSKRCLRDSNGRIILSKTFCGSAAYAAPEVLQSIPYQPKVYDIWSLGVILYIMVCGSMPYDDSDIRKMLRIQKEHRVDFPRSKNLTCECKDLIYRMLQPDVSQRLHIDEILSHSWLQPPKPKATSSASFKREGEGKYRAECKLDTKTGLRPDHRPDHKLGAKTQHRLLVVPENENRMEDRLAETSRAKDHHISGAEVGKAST

[38] = target: Non-receptor tyrosine-protein kinase TYK2 (Homo sapiens) (UniProt P29597); assay: activity of TYK2(h) at 1.0 µM in the Eurofins Kinase panel; details: Compound concentration 1.0 uM

With `Cc1cc2c(-c3ccc(NC(=O)[C@H](N)CC(C)(C)C)cc3C)ccnc2[nH]1` the IC50 (Aurora kinase A) was > 10 µM (not active), the activity [1] was 99% and the activity [2] was 85%. It also gave an activity [3] of 83%, an activity [4] of 75% and an activity [5] of 98%. For the same compound, the activity [6] was 108%, the activity [7] was 107% and the activity [8] was 99%. The activity [9] was 92%, the activity [10] was 115% and the activity [11] was 111%. It also gave an activity [12] of 105%, an activity [13] of 110% and an activity [14] of 99%. For the same compound, the activity [15] was 90%, the activity [16] was 99% and the activity [17] was 96%. It also gave an activity [18] of 92%, an activity [19] of 92% and an activity [20] of 89%. It also gave an activity [21] of 96%, an activity [22] of 110% and an activity [23] of 95%. For the same compound, the activity [24] was 83%, the activity [25] was 87% and the activity [26] was 110%. It also gave an activity [27] of 97%, an activity [28] of 107% and an activity [29] of 91%. For the same compound, the activity [30] was 90%, the activity [31] was 76% and the activity [32] was 99%. For the same compound, the activity [33] was 94%, the activity [34] was 101% and the activity [35] was 93%. For the same compound, the activity [36] was 104%, the activity [37] was 113% and the activity [38] was 103%.
